In brackets after ≈: the same amount, converted by molar mass.
Assays:
Type in all cases: functional
Staphylococcus aureus [1] = test: Antibacterial activity against Staphylococcus aureus ATCC 25923 by agar dilution method
Staphylococcus aureus [2] = test: Antibacterial activity against Staphylococcus aureus ATCC 25923 by agar dilution method in presence of human plasma; conditions: ATCC 25923, Plasma
Staphylococcus aureus [3] = test: Antibacterial activity against methicillin-susceptible Staphylococcus aureus by agar dilution method
Staphylococcus aureus [4] = test: Antibacterial activity against methicillin-resistant Staphylococcus aureus by agar dilution method
Staphylococcus [5] = test: Antibacterial activity against methicillin-sensitive coagulase-negative Staphylococcus by agar dilution method
Staphylococcus [6] = test: Antibacterial activity against methicillin resistant coagulase-negative Staphylococcus by agar dilution method
Streptococcus pneumoniae = test: Antibacterial activity against Streptococcus pneumoniae by agar dilution method
Enterococcus [7] = test: Antibacterial activity against vancomycin-sensitive Enterococcus by agar dilution method
Enterococcus [8] = test: Antibacterial activity against vancomycin-resistant Enterococcus by agar dilution method
Haemophilus influenzae [9] = test: Antibacterial activity against Haemophilus influenzae ATCC 49247 by agar dilution method
Haemophilus influenzae [10] = test: Antibacterial activity against Haemophilus influenzae isolate 280 by agar dilution method
Haemophilus influenzae [11] = test: Antibacterial activity against Haemophilus influenzae isolate 282 by agar dilution method
Haemophilus influenzae [12] = test: Antibacterial activity against Haemophilus influenzae isolate 283 by agar dilution method
Haemophilus influenzae [13] = test: Antibacterial activity against Haemophilus influenzae isolate 285 by agar dilution method
Moraxella catarrhalis = test: Antibacterial activity against Moraxella catarrhalis by agar dilution method
Escherichia coli = test: Antibacterial activity against Escherichia coli ATCC 25922 by agar dilution method

| SMILES | MIC (Staphylococcus aureus [1]) [µg/mL] | MIC (Staphylococcus aureus [2]) [µg/mL] | MIC (Staphylococcus aureus [3]) [µg/mL] | MIC (Staphylococcus aureus [4]) [µg/mL] | MIC (Staphylococcus [5]) [µg/mL] | MIC (Staphylococcus [6]) [µg/mL] | MIC (Streptococcus pneumoniae) [µg/mL] | MIC (Enterococcus [7]) [µg/mL] | MIC (Enterococcus [8]) [µg/mL] | MIC (Haemophilus influenzae [9]) [µg/mL] | MIC (Haemophilus influenzae [10]) [µg/mL] | MIC (Haemophilus influenzae [11]) [µg/mL] | MIC (Haemophilus influenzae [12]) [µg/mL] | MIC (Haemophilus influenzae [13]) [µg/mL] | MIC (Moraxella catarrhalis) [µg/mL] | MIC (Escherichia coli) [µg/mL] |
| --- | --- | --- | --- | --- | --- | --- | --- | --- | --- | --- | --- | --- | --- | --- | --- | --- |
| Cc1cn(C[C@H]2CN(c3ccc(N4CCN(C(=O)C5CCCCC5)CC4)c(F)c3)C(=O)O2)nn1 | 2 (≈ 4.25 µM) | 32 | 1 (≈ 2.13 µM) | 2 (≈ 4.25 µM) | 1 (≈ 2.13 µM) | 1 (≈ 2.13 µM) | 4 (≈ 8.5 µM) | 1 (≈ 2.13 µM) | 1 (≈ 2.13 µM) | 32 (≈ 68 µM) | 32 (≈ 68 µM) | 32 (≈ 68 µM) | 32 (≈ 68 µM) | 32 (≈ 68 µM) | 32 (≈ 68 µM) | > 64 |
| CCCCC(=O)N1CCN(c2ccc(N3C[C@H](Cn4cc(C)nn4)OC3=O)cc2F)CC1 | 2 (≈ 4.5 µM) | 32 | 1 (≈ 2.25 µM) | 1 (≈ 2.25 µM) | 1 (≈ 2.25 µM) | 1 (≈ 2.25 µM) | 2 (≈ 4.5 µM) | 1 (≈ 2.25 µM) | 1 (≈ 2.25 µM) | 64 (≈ 144 µM) | 64 (≈ 144 µM) | 64 (≈ 144 µM) | 64 (≈ 144 µM) | 64 (≈ 144 µM) | 16 (≈ 36 µM) | > 64 |
| CC(=O)NC[C@H]1CN(c2ccc(N3CCOCC3)c(F)c2)C(=O)O1 [LINEZOLID] |  |  | 0.5 (≈ 1.48 µM) | 0.5 (≈ 1.48 µM) | 0.5 (≈ 1.48 µM) | 0.5 (≈ 1.48 µM) |  | 0.5 (≈ 1.48 µM) | 0.5 (≈ 1.48 µM) | 8 (≈ 23.7 µM) | 8 (≈ 23.7 µM) | 16 (≈ 47.4 µM) | 16 (≈ 47.4 µM) | 8 (≈ 23.7 µM) | 8 (≈ 23.7 µM) | > 64 |
| Cc1cn(C[C@H]2CN(c3ccc(N4CCN(C(=O)C5CCCC5)CC4)c(F)c3)C(=O)O2)nn1 | 4 (≈ 8.76 µM) | 32 | 2 (≈ 4.38 µM) | 2 (≈ 4.38 µM) | 2 (≈ 4.38 µM) | 2 (≈ 4.38 µM) | 4 (≈ 8.76 µM) | 2 (≈ 4.38 µM) | 2 (≈ 4.38 µM) | 32 (≈ 70.1 µM) | 32 (≈ 70.1 µM) | 32 (≈ 70.1 µM) | 32 (≈ 70.1 µM) | 32 (≈ 70.1 µM) | 32 (≈ 70.1 µM) | > 64 |
| Cc1cn(C[C@H]2CN(c3ccc(N4CCN(C(=O)C(F)(F)F)CC4)c(F)c3)C(=O)O2)nn1 | 4 (≈ 8.76 µM) | 8 | 1 (≈ 2.19 µM) | 2 (≈ 4.38 µM) | 1 (≈ 2.19 µM) | 1 (≈ 2.19 µM) | 1 (≈ 2.19 µM) | 1 (≈ 2.19 µM) | 1 (≈ 2.19 µM) | 64 (≈ 140 µM) | 64 (≈ 140 µM) | 64 (≈ 140 µM) | 64 (≈ 140 µM) | 64 (≈ 140 µM) | 8 (≈ 17.5 µM) | 8 (≈ 17.5 µM) |
| CCCCCCC(=O)N1CCN(c2ccc(N3C[C@H](Cn4cc(C)nn4)OC3=O)cc2F)CC1 | 8 (≈ 16.9 µM) | > 64 | 8 (≈ 16.9 µM) | 8 (≈ 16.9 µM) | 4 (≈ 8.46 µM) | 8 (≈ 16.9 µM) | 8 (≈ 16.9 µM) | 4 (≈ 8.46 µM) | 4 (≈ 8.46 µM) | > 64 | > 64 | > 64 | > 64 | > 64 | 64 (≈ 135 µM) | > 64 |
| Cc1cn(C[C@H]2CN(c3ccc(N4CCN(C(=O)OC(C)(C)C)CC4)c(F)c3)C(=O)O2)nn1 |  | 64 | 2 (≈ 4.34 µM) |  |  |  | 8 (≈ 17.4 µM) |  |  | > 64 | > 64 | > 64 | > 64 | > 64 | 64 (≈ 139 µM) | > 64 |
| Cc1cn(C[C@H]2CN(c3ccc(N4CCNCC4)c(F)c3)C(=O)O2)nn1.O=C(O)C(F)(F)F | 4 | 32 | 4 | 4 | 4 | 4 | 2 | 4 | 8 | 32 | 32 | 32 | 32 | 32 | 16 | > 64 |
| CC(=O)N1CCN(c2ccc(N3C[C@H](Cn4cc(C)nn4)OC3=O)cc2F)CC1 | 2 (≈ 4.97 µM) | 8 | 1 (≈ 2.48 µM) | 1 (≈ 2.48 µM) | 1 (≈ 2.48 µM) | 1 (≈ 2.48 µM) | 1 (≈ 2.48 µM) | 1 (≈ 2.48 µM) | 1 (≈ 2.48 µM) | 64 (≈ 159 µM) | 64 (≈ 159 µM) | 64 (≈ 159 µM) | 64 (≈ 159 µM) | 64 (≈ 159 µM) | 8 (≈ 19.9 µM) | > 64 |
| Cc1cn(C[C@H]2CN(c3ccc(N4CCN(C(=O)C(Cl)Cl)CC4)c(F)c3)C(=O)O2)nn1 | 2 (≈ 4.24 µM) | 8 | 1 (≈ 2.12 µM) | 1 (≈ 2.12 µM) | 1 (≈ 2.12 µM) | 0.5 (≈ 1.06 µM) | 1 (≈ 2.12 µM) | 1 (≈ 2.12 µM) | 1 (≈ 2.12 µM) | 64 (≈ 136 µM) | 32 (≈ 67.9 µM) | 32 (≈ 67.9 µM) | 64 (≈ 136 µM) | 32 (≈ 67.9 µM) | 16 (≈ 33.9 µM) | > 64 |
| CCC(C)C(=O)N1CCN(c2ccc(N3C[C@H](Cn4cc(C)nn4)OC3=O)cc2F)CC1 (some centres not stated) | 2 (≈ 4.5 µM) | 32 | 2 (≈ 4.5 µM) | 2 (≈ 4.5 µM) | 2 (≈ 4.5 µM) | 2 (≈ 4.5 µM) | 4 (≈ 9 µM) | 4 (≈ 9 µM) | 4 (≈ 9 µM) | > 64 | > 64 | > 64 | > 64 | > 64 | 32 (≈ 72 µM) | > 64 |
| Cc1cn(C[C@H]2CN(c3ccc(N4CCN(C(=O)Cc5ccccc5)CC4)c(F)c3)C(=O)O2)nn1 | 4 (≈ 8.36 µM) | > 64 | 2 (≈ 4.18 µM) | 2 (≈ 4.18 µM) | 2 (≈ 4.18 µM) | 2 (≈ 4.18 µM) | 2 (≈ 4.18 µM) | 2 (≈ 4.18 µM) | 1 (≈ 2.09 µM) | > 64 | > 64 | > 64 | > 64 | > 64 | 16 (≈ 33.4 µM) | > 64 |
| Cc1cn(C[C@H]2CN(c3ccc(N4CCN(C(=O)c5ccccc5)CC4)c(F)c3)C(=O)O2)nn1 | 2 (≈ 4.31 µM) | 32 | 1 (≈ 2.15 µM) | 1 (≈ 2.15 µM) | 1 (≈ 2.15 µM) | 1 (≈ 2.15 µM) | 4 (≈ 8.61 µM) | 1 (≈ 2.15 µM) | 1 (≈ 2.15 µM) | > 64 | > 64 | > 64 | > 64 | > 64 | 32 (≈ 68.9 µM) | > 64 |
| CCCCCC(=O)N1CCN(c2ccc(N3C[C@H](Cn4cc(C)nn4)OC3=O)cc2F)CC1 | 4 (≈ 8.72 µM) | > 64 | 2 (≈ 4.36 µM) | 4 (≈ 8.72 µM) | 2 (≈ 4.36 µM) | 2 (≈ 4.36 µM) | 8 (≈ 17.4 µM) | 2 (≈ 4.36 µM) | 2 (≈ 4.36 µM) | > 64 | > 64 | > 64 | > 64 | > 64 | > 64 | > 64 |
| CN[C@H](CC(C)C)C(=O)N[C@H]1C(=O)N[C@@H](CC(N)=O)C(=O)N[C@H]2C(=O)N[C@H]3C(=O)N[C@H](C(=O)N[C@H](C(=O)O)c4cc(O)cc(O)c4-c4cc3ccc4O)[C@H](O)c3ccc(c(Cl)c3)Oc3cc2cc(c3O[C@@H]2O[C@H](CO)[C@@H](O)[C@H](O)[C@H]2O[C@H]2C[C@](C)(N)[C@H](O)[C@H](C)O2)Oc2ccc(cc2Cl)[C@H]1O [VANCOMYCIN] |  |  |  |  | 1 (≈ 0.69 µM) | 1 (≈ 0.69 µM) | 0.5 (≈ 0.345 µM) | 0.25 (≈ 0.173 µM) | > 64 | > 16 | > 16 | > 16 | > 16 | > 16 | > 16 | > 64 |

Reference: ChEMBL document CHEMBL1153012, “Synthesis and antibacterial activity of novel 5-(4-methyl-1H-1,2,3-triazole) methyl oxazolidinones” (2009)
